{"source": "patent US6872517B2", "about": "“Early diagnosis of cancerous and precancerous conditions by leakage of signature peptides and carbohydrates into the bloodstream” (Lankenau Institute for Medical Research, priority 2000, dated 2005)", "key": {"rat colon epithelium": {"test_system": "rat colon epithelium", "assay": "Increased luminal EGF in rat colon", "type": "in vivo", "description": "The biological significance here is that luminal fluids of many epithelial tissues contain very high levels of certain growth factors (Barnard et al., 1995; Jorgenson et al., 1990; Nexo et al., 1992; Mroczkowski and Reich, 1993), whereas the receptors for these growth factors are normally found on the abluminal cell surface. (Bishop and Wen, 1994; Muto et al., 1991; Thompson, 1988; Scheving et al., 1989). […] (Mullin, 1997). […] This is a direct consequence of the carcinogen's effect on colonic crypt epithelial TJs as described below."}, "occludin": {"test_system": "occludin", "conditions": "cited from earlier work"}, "[1]": {"test_system": "renal epithelial cell line", "conditions": "cited from earlier work"}, "LLC-PK1": {"test_system": "LLC-PK1", "conditions": "cited from earlier work"}, "DMH-treated colon": {"test_system": "DMH-treated colon", "assay": "Barrier function of DMH-treated colon (Rt, 14C-D-mannitol flux, aberrant crypts)", "type": "in vivo, rat", "description": "In addition, however, weekly changes in barrier function of DMH-treated colon were examined, with an emphasis on assessing that function by means of electrophysiology (Rt) and transepithelial flux of ^14C-D-mannitol."}, "[2]": {"conditions": "as weeks of DMH exposure progressed"}}}
{"compound": "EGF: Epidermal Growth Factor, a growth factor (NSDSECPLSHDGYCLHDGVCMYIEALDKYACNCVVGYIGERCQYRDLKWWELR; Epidermal growth factor; UniProt P01133 971-1023, looked up)", "values": [{"measurement": "carcinomas in carcinogen-treated rat colon", "setting": "rat colon epithelium; colon treated with dimethylhydrazine, luminal EGF increased", "result": "greater number and size of carcinomas"}, {"measurement": "effect on normal rat colon epithelium", "setting": "rat colon epithelium; increased EGF concentration in colonic lumen", "result": "does not produce any observed effect"}]}
{"compound": "CCCCCCCCCCCCCC(=O)O[C@@H]1[C@@H](C)[C@@]2(O)[C@@H](C=C(CO)C[C@]3(O)C(=O)C(C)=C[C@@H]23)[C@@H]2C(C)(C)[C@]12OC(C)=O", "note": "[TPA]", "values": [{"measurement": "ZO-1 expression", "setting": "occludin; immunofluorescence", "result": "down regulated"}, {"measurement": "localization of occludin", "setting": "occludin; immunofluorescence", "result": "very little change"}, {"measurement": "threonine phosphorylation state of occludin", "setting": "occludin; in association with increased TJ permeability", "result": "decrease"}, {"measurement": "transepithelial leakiness to salts", "setting": "[1]", "result": "capable of causing transepithelial leakiness to salts"}, {"measurement": "transepithelial electrical resistance (Rt)", "setting": "LLC-PK1; LLC-PK1 cell line", "result": "rapid, dose dependent decrease"}, {"measurement": "penetration of tight junctions by ruthenium red", "setting": "LLC-PK1; TPA-treated cell sheets, not control cultures", "result": "able to penetrate"}, {"measurement": "size of molecules the TJs became leaky to", "setting": "LLC-PK1; TPA-treated cell sheets", "result": "≤ 2", "unit": "million"}, {"measurement": "crossing of paracellular markers D-mannitol (mw 182) and polyethylene glycol (mw 4000)", "setting": "LLC-PK1; TPA-treated epithelial cell sheet vs control cell sheet", "result": "much more rapidly"}, {"measurement": "morphology after chronic exposure", "setting": "LLC-PK1; chronic exposure, 4 days or greater", "result": "polyp-like, multilayered foci"}]}
{"compound": "CNNC", "note": "[DMH, dimethylhydrazine]", "values": [{"measurement": "transepithelial electrical resistance (Rt)", "setting": "DMH-treated colon; [2]", "result": "irregular but significant decline"}, {"measurement": "transepithelial flux of 14C-D-mannitol", "setting": "DMH-treated colon; [2]", "result": "rise"}, {"measurement": "number of aberrant colon crypts", "setting": "DMH-treated colon; with increasing weeks of DMH exposure", "result": "increased in number"}]}
